From patent US9481636B2, “N-benzylaniline derivative and uses thereof” (Nanjing Medical University, priority 2011, dated 2016)

test system: OGD-injuried neurons (primary cortical neurons); test: Cell viability assay: LDH release by OGD-injured primary cortical neurons; assay type: cell-based, mice; details: Mus musculus, Primary cortical neuron; drug concentration 10^−6 M/L; OGD 2 hours, LDH after 8 hours
Experimental: After primary neurons were cultured for 9 days, the medium was replaced by DMEM high glucose medium containing 1% FBS, serum-starved overnight and then washed twice with OGD culture solution. This OGD culture solution contains DMEM medium, 1% FBS, 1% penicillin/streptomycin and B27, and contains no sugar. Then, the primary neurons were incubated with the test drugs for 30 minutes, OGD culture solution was added into an anaerobic tank and oxygen-deprived for 2 hours. The OGD culture solution was discarded, and replaced by oxygen-saturated DMEM medium containing 1% FBS, 1% penicillin/streptomycin and B27. After 8 hours the culture solution was collected to measure LDH level.
After the primary cortical neurons were treated with various processes, neuronal culture solution in six-well plates was pipetted to a 1.5 mL plastic centrifuge tube; cells were washed three times with PBS solution and each well was added PBS 1000 μl. The cells were freezed and thawed repeated for three times, centrifuged at 12000′ g for 5 minutes at 4° C., and the supernatant was removed for use. The activity of LDH enzyme was determined with 50 μl culture solution and 25 μl supernatant using lactate dehydrogenase kit.
Protective Effects of the Objective Compounds Against Primary Cortical Neuronal Injury Cultured In Vitro (See Table 2)

Point of comparison: `CC1(C)C2CCC1(C)C(OC(=O)c1ccc(NCc3cc(Cl)cc(Cl)c3O)c(Cl)c1O)C2` (stereo not drawn) [ZL006-17, bornyl-2-hydroxy-3-chloro-4-(2-hydroxy-3,5-dichlorobenzyl)aminobenzoate], inhibition at 1 µM 48.2%. Against it:
- CC1(C)C2CCC1(C)C(OC(=O)c1cc(NCc3cc(C(F)(F)F)cc(Cl)c3O)ccc1O)C2 (stereo not drawn) [ZL006-48, bornyl-2-hydroxy-5-(2-hydroxy-3-chloro-5-trifluoromethylbenzyl)aminobenzoate] — lower, 21.1%
- CC1(C)C2CCC1(C)C(OC(=O)c1ccc(NCc3cc(C(F)(F)F)cc(Cl)c3O)cc1O)C2 (stereo not drawn) [ZL006-47, bornyl-2-hydroxy-4-(2-hydroxy-3-chloro-5-trifluoromethylbenzyl)aminobenzoate] — higher, 84.2%
- CC(=O)Oc1c(C(=O)OC2CC3CCC2(C)C3(C)C)ccc(NCc2cc(Cl)cc(Cl)c2O)c1Cl (stereo not drawn) [ZL006-19, bornyl-2-acetyloxy-3-chloro-4-(2-hydroxy-3,5-dichlorobenzyl)aminobenzoate] — lower, 23.9%
- CC(=O)Oc1cc(NCc2cc(C(F)(F)F)cc(Cl)c2O)ccc1C(=O)OC1CC2CCC1(C)C2(C)C (stereo not drawn) [ZL006-51, bornyl-2-acetyloxy-4-(2-hydroxy-3-chloro-5-trifluoromethylbenzyl)aminobenzoate] — higher, 66.3%
- CCCC(=O)Oc1cc(NCc2cc(C(F)(F)F)cc(Cl)c2O)ccc1C(=O)OC1CC2CCC1(C)C2(C)C (stereo not drawn) [ZL006-52, bornyl-2-butyryloxy-4-(2-hydroxy-3-chloro-5-trifluoromethylbenzyl)aminobenzoate] — lower, 40.5%
- CC(=O)Oc1c(Cl)cc(C(F)(F)F)cc1CNc1ccc(C(=O)OC2CC3CCC2(C)C3(C)C)c(O)c1 (stereo not drawn) [ZL006-80, bornyl-2-hydroxy-4-(2-acetyloxy-3-chloro-5-trifluoromethylbenzyl)aminobenzoate] — lower, 41.1%

same assay, conditions: drug concentration 10^−6 M/L; OGD 2 hours, LDH after 8 hours

Point of comparison: `CC1(C)C2CCC1(C)C(OC(=O)c1ccc(NCc3cc(C(F)(F)F)ccc3O)cc1O)C2` (stereo not drawn) [ZL006-72, bornyl-2-hydroxy-4-(2-hydroxy-5-trifluoromethylbenzyl) aminobenzoate], “Inhibition of LDH release (%)” value 21.6%. Against it:
- COc1c(Cl)cc(Cl)cc1CNc1ccc(C(=O)OC2CC3CCC2(C)C3(C)C)c(O)c1 (stereo not drawn) [ZL006-75, bornyl-2-hydroxy-4-(2-methoxy-3,5-dichlorobenzyl) aminobenzoate] — higher, 31.3%
- CC(=O)N(Cc1cc(C(F)(F)F)cc(Cl)c1O)c1ccc(C(=O)OC2CC3CCC2(C)C3(C)C)c(O)c1 (stereo not drawn) [ZL006-54, bornyl-2-hydroxy-4-[N-(2-hydroxy-3-chloro-5-trifluoromethylbenzyl)-N-acetyl]aminobenzoate] — higher, 74.2%
- CC1(C)C2CCC1(C)C(OC(=O)c1cc(NCc3cc(Br)ccc3O)ccc1O)C2 (stereo not drawn) [ZL006-04, bornyl-2-hydroxy-5-(2-hydroxy-5-bromobenzyl) aminobenzoate] — higher, 26.9%
- CCCCCC(=O)Oc1cc(NCc2cc(Cl)cc(Cl)c2O)ccc1C(=O)OC1CC2CCC1(C)C2(C)C (stereo not drawn) [ZL006-24, bornyl-2-hexanoyloxy-4-(2-hydroxy-3,5-dichlorobenzyl) aminobenzoate] — higher, 31.2%
- CC(=O)Oc1cc(NCc2cc(Br)ccc2O)ccc1C(=O)OC1CC2CCC1(C)C2(C)C (stereo not drawn) [ZL006-65, bornyl-2-acetyloxy-4-(2-hydroxy-5-bromobenzyl) aminobenzoate] — higher, 38.2%
- CC1(C)C2CCC1(C)C(OC(=O)c1cc(NCc3cc(Cl)cc(Cl)c3O)ccc1O)C2 (stereo not drawn) [ZL006-01, bornyl-2-hydroxy-5-(2-hydroxy-3,5-dichlorobenzyl) aminobenzoate] — lower, 2.3%
- methyl 2-(bornyl-2-carbonylethoxy)-4-[N-(2-hydroxy-3,5-dichlorobenzyl)-N-acetyl]aminobenzoate [ZL006-35] — lower, 12.8%
- bornyl-2-(2-ethoxy-2-carbonylethoxy)-4-[N-(2-hydroxy-3,5-dichlorobenzyl)-N-(2-ethoxy-2-carbonylethyl)]aminobenzoate [ZL006-36] — lower, 10.4%
- CN(Cc1cc(Cl)cc(Cl)c1O)c1ccc(C(=O)O)c(O)c1 [ZL006-09, 2-hydroxy-4-[N-(2-hydroxy-3,5-dichlorobenzyl)-N-methyl]aminobenzoic acid] — higher, 29.5%
- COc1cc(NCc2cc(C(F)(F)F)ccc2O)ccc1C(=O)OC1CC2CCC1(C)C2(C)C (stereo not drawn) [ZL006-73, bornyl-2-methoxy-4-(2-hydroxy-5-trifluoromethylbenzyl) aminobenzoate] — higher, 25.3%
- bornyl-2-(2-methoxy-2-carbonylethoxy)-4-[N-(2-hydroxy-3,5-dichlorobenzyl)-N-methyl]aminobenzoate [ZL006-34] — higher, 24.1%
- CC(=O)Oc1cc(NCc2cc(Cl)cc(Cl)c2O)c(Cl)cc1C(=O)OC1CC2CCC1(C)C2(C)C (stereo not drawn) [ZL006-18, bornyl-2-acetyloxy-4-(2-hydroxy-3,5-dichlorobenzyl) amino-5-chlorobenzoate] — higher, 41.5%
- COc1c(Cl)cc(Br)cc1CNc1ccc(C(=O)OC2CC3CCC2(C)C3(C)C)c(O)c1 (stereo not drawn) [ZL006-77, bornyl-2-hydroxy-4-(2-methoxy-3-chloro-5-bromobenzyl) aminobenzoate] — higher, 44.1%
- CC1(C)C2CCC1(C)C(OC(=O)c1cc(NCc3cc(Cl)ccc3O)ccc1O)C2 (stereo not drawn) [ZL006-03, bornyl-2-hydroxy-5-(2-hydroxy-5-chlorobenzyl) aminobenzoate] — lower, 17.8%
- CN(Cc1cc(Br)cc(Cl)c1O)c1ccc(C(=O)OC2CC3CCC2(C)C3(C)C)c(O)c1 (stereo not drawn) [ZL006-45, bornyl-2-hydroxy-4-[N-(2-hydroxy-3-chloro-5-bromobenzyl)-N-methyl]aminobenzoate] — higher, 67.2%
- CC(=O)Oc1cc(NCc2cc(F)cc(Cl)c2O)ccc1C(=O)OC1CC2CCC1(C)C2(C)C (stereo not drawn) [ZL006-07, bornyl-2-acetyloxy-4-(2-hydroxy-3-chloro-5-fluorobenzyl) aminobenzoate] — lower, 20.7%
- CC1(C)C2CCC1(C)C(OC(=O)c1ccc(NCc3cc(F)ccc3O)cc1O)C2 (stereo not drawn) [ZL006-69, bornyl-2-hydroxy-4-(2-hydroxy-5-fluorobenzyl) aminobenzoate] — lower, 17.3%
- CC(=O)Oc1cc(NCc2cc(Cl)ccc2O)ccc1C(=O)OC1CC2CCC1(C)C2(C)C (stereo not drawn) [ZL006-68, bornyl-2-acetyloxy-4-(2-hydroxy-5-chlorobenzyl) aminobenzoate] — lower, 1.2%
- CC1(C)C2CCC1(C)C(OC(=O)c1ccc(NCc3cc(Br)ccc3O)cc1O)C2 (stereo not drawn) [ZL006-63, bornyl-2-hydroxy-4-(2-hydroxy-5-bromobenzyl) aminobenzoate] — higher, 22.8%
- CC(=O)N(Cc1cc(Br)cc(Cl)c1O)c1ccc(C(=O)OC2CC3CCC2(C)C3(C)C)c(O)c1 (stereo not drawn) [ZL006-46, bornyl-2-hydroxy-4-[N-(2-hydroxy-3-chloro-5-bromobenzyl)-N-acetyl]aminobenzoate] — higher, 72.5%
- COC(=O)c1ccc(N(Cc2cc(Cl)cc(Cl)c2O)C(C)=O)cc1OC(C)=O [ZL006-81, methyl 2-acetyloxy-4-[N-(2-hydroxy-3,5-dichlorobenzyl)-N-acetyl]aminobenzoate] — higher, 31.8%
- CC(=O)N(Cc1cc(F)cc(Cl)c1O)c1ccc(C(=O)OC2CC3CCC2(C)C3(C)C)c(O)c1 (stereo not drawn) [ZL006-62, bornyl-2-hydroxy-4-[N-(2-hydroxy-3-chloro-5-fluorobenzyl)-N-acetyl]aminobenzoate] — higher, 50.1%
- COc1cc(NCc2cc(Cl)ccc2O)ccc1C(=O)OC1CC2CCC1(C)C2(C)C (stereo not drawn) [ZL006-67, bornyl-2-methoxy-4-(2-hydroxy-5-chlorobenzyl) aminobenzoate] — lower, 0.4%
- CN(Cc1cc(Cl)cc(Cl)c1O)c1ccc(O)c(C(=O)O)c1 [ZL006-12, 2-hydroxy-5-[N-(2-hydroxy-3,5-dichlorobenzyl)-N-methyl]aminobenzoic acid] — lower, 15.1%
- CC1(C)C2CCC1(C)C(OC(=O)c1cc(NCc3cc(Br)cc(Cl)c3O)ccc1O)C2 (stereo not drawn) [ZL006-40, bornyl-2-hydroxy-5-(2-hydroxy-3-chloro-5-bromobenzyl) aminobenzoate] — higher, 41.8%
- bornyl-2-(bornyl-2-carbonylethoxy)-4-[N-(2-hydroxy-3,5-dichlorobenzyl)-N-(bornyl-2-carbonylethyl)]aminobenzoate [ZL006-37] — higher, 40.2%
- COC(=O)c1ccc(N(Cc2cc(C(F)(F)F)cc(Cl)c2O)C(C)=O)cc1OC(C)=O [ZL006-83, methyl 2-acetyloxy-4-[N-(2-hydroxy-3-chloro-5-trifluoromethylbenzyl)-N-acetyl]aminobenzoate] — higher, 33.2%
- COc1cc(NCc2cc(Br)ccc2O)ccc1C(=O)OC1CC2CCC1(C)C2(C)C (stereo not drawn) [ZL006-64, bornyl-2-methoxy-4-(2-hydroxy-5-bromobenzyl) aminobenzoate] — higher, 25.4%
